Experimental data: the kinase profiling compilation of Christmann-Franck et al. (2016)

Tests used:
Test in all cases: radiometric filter-binding kinase assay
[1] = molecular target: AURKB (human) (UniProt Q96GD4)
[2] = molecular target: CDK2 CCNA2 (human) (UniProt P20248+P24941)
[3] = molecular target: CHEK2 (human) (UniProt O96017)
[4] = molecular target: CSK (human) (UniProt P41240)
[5] = molecular target: CSNK2A1 (human) (UniProt P68400)
[6] = molecular target: DAPK1 (human) (UniProt P53355); conditions: compound 0.1 µM
[7] = molecular target: EEF2K (human) (UniProt O00418)
[8] = molecular target: EPHB3 (human) (UniProt P54753)
[9] = molecular target: ERBB4 (human) (UniProt Q15303)
[10] = molecular target: FGFR1 (human) (UniProt P11362)
[11] = molecular target: GSK3B (human) (UniProt P49841)
Sequence of GSK3B (human) (P49841 whole entry, looked up): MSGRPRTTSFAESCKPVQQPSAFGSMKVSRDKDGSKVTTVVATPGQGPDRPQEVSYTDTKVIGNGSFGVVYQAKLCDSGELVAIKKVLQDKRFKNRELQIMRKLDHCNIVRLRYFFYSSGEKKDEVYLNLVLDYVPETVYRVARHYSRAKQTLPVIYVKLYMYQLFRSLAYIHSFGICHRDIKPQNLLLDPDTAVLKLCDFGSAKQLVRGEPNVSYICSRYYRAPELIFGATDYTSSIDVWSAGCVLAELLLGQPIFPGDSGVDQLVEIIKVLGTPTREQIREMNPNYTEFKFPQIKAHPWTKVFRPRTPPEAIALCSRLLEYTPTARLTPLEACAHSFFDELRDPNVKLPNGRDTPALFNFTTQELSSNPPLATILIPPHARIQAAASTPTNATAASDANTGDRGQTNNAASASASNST

[12] = molecular target: IKBKB (human) (UniProt O14920)
[13] = molecular target: INSRR (human) (UniProt P14616)
Sequence of INSRR (human) (P14616 whole entry, looked up): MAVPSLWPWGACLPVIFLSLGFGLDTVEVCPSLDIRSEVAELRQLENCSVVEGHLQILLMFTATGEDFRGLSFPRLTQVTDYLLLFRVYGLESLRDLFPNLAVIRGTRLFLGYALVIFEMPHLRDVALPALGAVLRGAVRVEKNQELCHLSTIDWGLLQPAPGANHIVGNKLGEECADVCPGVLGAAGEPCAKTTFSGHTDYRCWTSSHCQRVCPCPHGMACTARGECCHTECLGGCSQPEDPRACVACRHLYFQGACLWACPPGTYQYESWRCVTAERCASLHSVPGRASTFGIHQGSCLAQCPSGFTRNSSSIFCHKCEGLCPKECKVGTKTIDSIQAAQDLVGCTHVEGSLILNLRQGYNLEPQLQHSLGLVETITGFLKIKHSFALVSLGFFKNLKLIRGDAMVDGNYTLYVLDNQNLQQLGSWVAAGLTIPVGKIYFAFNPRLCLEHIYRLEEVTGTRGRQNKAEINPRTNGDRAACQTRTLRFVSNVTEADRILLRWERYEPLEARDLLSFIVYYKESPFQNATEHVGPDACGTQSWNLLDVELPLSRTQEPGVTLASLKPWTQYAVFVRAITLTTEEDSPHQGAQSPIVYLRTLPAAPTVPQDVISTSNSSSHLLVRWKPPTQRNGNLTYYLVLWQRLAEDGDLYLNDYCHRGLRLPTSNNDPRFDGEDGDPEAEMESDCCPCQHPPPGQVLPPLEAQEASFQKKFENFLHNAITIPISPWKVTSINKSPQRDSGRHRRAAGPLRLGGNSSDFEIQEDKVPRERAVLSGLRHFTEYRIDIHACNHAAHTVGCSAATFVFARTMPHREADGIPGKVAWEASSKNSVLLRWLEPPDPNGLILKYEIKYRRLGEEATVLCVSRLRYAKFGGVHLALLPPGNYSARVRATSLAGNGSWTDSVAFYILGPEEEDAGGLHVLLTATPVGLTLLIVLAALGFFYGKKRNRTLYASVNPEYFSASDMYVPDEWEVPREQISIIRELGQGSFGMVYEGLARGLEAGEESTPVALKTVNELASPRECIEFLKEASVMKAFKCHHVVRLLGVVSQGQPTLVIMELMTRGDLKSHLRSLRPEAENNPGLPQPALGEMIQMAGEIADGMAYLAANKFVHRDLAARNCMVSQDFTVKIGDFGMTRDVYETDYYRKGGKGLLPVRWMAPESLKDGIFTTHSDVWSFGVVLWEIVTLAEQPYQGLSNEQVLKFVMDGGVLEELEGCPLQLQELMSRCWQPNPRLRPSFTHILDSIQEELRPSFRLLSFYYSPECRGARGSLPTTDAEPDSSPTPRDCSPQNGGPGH

[14] = test system: LCK (mouse); conditions: accession and sequence are those of the human protein
[15] = molecular target: MAP2K2 (human) (UniProt P36507); conditions: compound 0.1 µM
[16] = molecular target: MAP3K9 (human) (UniProt P80192)
Sequence of MAP3K9 (human) (P80192 whole entry, looked up): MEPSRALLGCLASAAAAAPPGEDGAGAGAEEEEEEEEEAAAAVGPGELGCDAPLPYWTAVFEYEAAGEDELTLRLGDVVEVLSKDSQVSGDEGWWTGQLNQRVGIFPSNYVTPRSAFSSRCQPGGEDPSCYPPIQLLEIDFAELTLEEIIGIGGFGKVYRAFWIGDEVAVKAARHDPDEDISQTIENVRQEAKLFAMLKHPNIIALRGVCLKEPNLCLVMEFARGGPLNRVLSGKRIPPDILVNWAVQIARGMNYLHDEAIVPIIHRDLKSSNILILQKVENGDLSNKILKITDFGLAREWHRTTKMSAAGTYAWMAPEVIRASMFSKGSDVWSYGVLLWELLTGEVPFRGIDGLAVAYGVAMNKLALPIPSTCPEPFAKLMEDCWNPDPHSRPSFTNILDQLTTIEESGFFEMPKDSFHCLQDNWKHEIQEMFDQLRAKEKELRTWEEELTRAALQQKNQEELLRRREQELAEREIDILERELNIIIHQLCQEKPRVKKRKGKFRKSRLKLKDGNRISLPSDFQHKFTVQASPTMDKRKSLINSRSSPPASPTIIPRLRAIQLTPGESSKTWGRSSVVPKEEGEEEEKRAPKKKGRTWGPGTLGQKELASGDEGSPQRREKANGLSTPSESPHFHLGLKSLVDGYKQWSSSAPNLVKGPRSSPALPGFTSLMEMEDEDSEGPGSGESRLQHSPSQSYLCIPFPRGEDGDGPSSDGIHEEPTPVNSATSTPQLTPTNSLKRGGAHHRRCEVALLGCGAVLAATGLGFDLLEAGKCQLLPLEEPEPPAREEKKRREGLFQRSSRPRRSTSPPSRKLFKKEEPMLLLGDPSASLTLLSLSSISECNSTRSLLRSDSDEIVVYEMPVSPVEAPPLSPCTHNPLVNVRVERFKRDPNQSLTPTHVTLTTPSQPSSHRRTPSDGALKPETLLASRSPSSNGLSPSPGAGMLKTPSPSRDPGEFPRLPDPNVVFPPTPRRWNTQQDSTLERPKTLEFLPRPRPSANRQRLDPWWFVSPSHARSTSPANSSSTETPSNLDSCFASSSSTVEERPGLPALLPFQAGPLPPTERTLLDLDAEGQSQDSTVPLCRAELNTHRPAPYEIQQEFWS

[17] = molecular target: MAPK1 (human) (UniProt P28482)
Sequence of MAPK1 (human) (P28482 whole entry, looked up): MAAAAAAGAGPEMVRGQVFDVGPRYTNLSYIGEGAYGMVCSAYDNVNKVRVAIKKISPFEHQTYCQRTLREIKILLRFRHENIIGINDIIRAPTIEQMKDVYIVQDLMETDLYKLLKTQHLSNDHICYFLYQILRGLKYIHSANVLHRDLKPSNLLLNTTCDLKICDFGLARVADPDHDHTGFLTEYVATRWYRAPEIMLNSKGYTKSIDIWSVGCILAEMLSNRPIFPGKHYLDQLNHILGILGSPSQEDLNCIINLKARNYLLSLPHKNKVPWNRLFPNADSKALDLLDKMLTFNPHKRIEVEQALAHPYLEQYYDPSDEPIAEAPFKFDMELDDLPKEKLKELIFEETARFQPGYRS

[18] = molecular target: MAPK13 (human) (UniProt O15264)
[19] = molecular target: MAPKAPK3 (human) (UniProt Q16644); conditions: compound 0.1 µM
[20] = molecular target: MARK4 (human) (UniProt Q96L34); conditions: compound 0.1 µM
[21] = molecular target: MELK (human) (UniProt Q14680)
Sequence of MELK (human) (Q14680 whole entry, looked up): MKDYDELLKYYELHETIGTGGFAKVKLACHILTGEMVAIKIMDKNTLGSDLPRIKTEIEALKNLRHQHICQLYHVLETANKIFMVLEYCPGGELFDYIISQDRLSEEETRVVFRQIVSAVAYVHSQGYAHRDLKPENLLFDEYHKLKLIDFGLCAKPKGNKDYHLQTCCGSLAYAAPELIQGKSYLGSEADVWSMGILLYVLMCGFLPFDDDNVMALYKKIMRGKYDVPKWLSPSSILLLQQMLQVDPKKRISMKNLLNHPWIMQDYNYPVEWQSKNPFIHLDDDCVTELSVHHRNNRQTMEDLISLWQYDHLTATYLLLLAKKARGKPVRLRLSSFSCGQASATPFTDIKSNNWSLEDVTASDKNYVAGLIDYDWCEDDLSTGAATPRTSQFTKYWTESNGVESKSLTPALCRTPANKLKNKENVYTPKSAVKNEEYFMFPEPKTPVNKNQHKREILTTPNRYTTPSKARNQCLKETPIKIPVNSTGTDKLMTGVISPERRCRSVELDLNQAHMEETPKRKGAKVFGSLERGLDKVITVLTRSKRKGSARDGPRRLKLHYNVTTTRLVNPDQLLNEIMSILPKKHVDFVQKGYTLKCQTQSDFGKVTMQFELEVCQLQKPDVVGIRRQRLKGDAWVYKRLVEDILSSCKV

[22] = molecular target: MINK1 (human) (UniProt Q8N4C8)
[23] = molecular target: MKNK1 (human) (UniProt Q9BUB5)
Sequence of MKNK1 (human) (Q9BUB5 whole entry, looked up): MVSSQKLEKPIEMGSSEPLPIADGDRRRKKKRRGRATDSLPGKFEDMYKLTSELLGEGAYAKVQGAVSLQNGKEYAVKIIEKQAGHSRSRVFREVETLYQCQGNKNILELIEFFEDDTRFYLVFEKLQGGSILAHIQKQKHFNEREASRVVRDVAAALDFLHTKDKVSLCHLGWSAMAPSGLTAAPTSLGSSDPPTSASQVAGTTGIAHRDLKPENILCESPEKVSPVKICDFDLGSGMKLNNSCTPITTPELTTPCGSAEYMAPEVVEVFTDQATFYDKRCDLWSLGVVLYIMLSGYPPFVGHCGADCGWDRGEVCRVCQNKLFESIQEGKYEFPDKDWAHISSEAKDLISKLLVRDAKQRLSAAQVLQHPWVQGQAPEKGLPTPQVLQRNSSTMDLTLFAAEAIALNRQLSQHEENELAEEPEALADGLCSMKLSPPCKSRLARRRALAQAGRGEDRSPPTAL

[24] = molecular target: MKNK2 (human) (UniProt Q9HBH9)
Sequence of MKNK2 (human) (Q9HBH9 whole entry, looked up): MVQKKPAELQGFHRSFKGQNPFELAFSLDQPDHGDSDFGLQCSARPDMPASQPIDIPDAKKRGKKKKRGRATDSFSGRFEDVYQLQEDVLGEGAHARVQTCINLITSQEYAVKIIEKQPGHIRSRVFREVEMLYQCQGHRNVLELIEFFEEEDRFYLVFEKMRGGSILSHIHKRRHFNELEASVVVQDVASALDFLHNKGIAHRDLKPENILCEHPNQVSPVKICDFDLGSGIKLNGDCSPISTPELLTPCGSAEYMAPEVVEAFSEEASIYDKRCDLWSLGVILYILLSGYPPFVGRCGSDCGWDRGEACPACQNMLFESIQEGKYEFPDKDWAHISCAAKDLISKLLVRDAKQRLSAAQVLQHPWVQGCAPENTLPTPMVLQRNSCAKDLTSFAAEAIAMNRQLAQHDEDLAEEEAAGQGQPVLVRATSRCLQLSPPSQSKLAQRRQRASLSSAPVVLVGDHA

[25] = molecular target: MYLK (human) (UniProt Q15746)
[26] = molecular target: NTRK1 (human) (UniProt P04629); conditions: compound 0.1 µM
[27] = molecular target: PHKG1 (human) (UniProt Q16816)
[28] = test system: PRKAA1 or PRKAA2 (rat); conditions: accession and sequence are those of the human protein
[29] = molecular target: PRKACA (human) (UniProt P17612)
[30] = molecular target: PRKCZ (human) (UniProt Q05513)
[31] = test system: ROCK2 (rat); conditions: accession and sequence are those of the human protein
[32] = molecular target: RPS6KA1 KD1 KD2 (human) (UniProt Q15418)
[33] = molecular target: SRC (human) (UniProt P12931)
[34] = molecular target: STK11 CAB39 STRADA (human) (UniProt Q9Y376+Q7RTN6+Q15831)
[35] = molecular target: TTK (human) (UniProt P33981)

SMILES: O=C(O)c1ccc(-c2c[nH]c3ncc(-c4ccccc4)cc23)cc1C1CCCC1
- residual activity ([1]; compound 0.1 µM): 85%
- residual activity ([1]; compound 1.0 µM): 32%
- residual activity ([1]; compound 10.0 µM): 6%
- residual activity ([2]; compound 0.1 µM): 106%
- residual activity ([2]; compound 1.0 µM): 1%
- residual activity ([2]; compound 10.0 µM): 0%
- residual activity ([3]; compound 0.1 µM): 83%
- residual activity ([3]; compound 1.0 µM): 40%
- residual activity ([3]; compound 10.0 µM): 28%
- residual activity ([4]; compound 0.1 µM): 99%
- residual activity ([4]; compound 1.0 µM): 96%
- residual activity ([4]; compound 10.0 µM): 98%
- residual activity ([5]; compound 0.1 µM): 96%
- residual activity ([5]; compound 10.0 µM): 46%
- residual activity [6]: 87%
- residual activity ([7]; compound 0.1 µM): 120%
- residual activity ([7]; compound 1.0 µM): 110%
- residual activity ([8]; compound 0.1 µM): 108%
- residual activity ([8]; compound 10.0 µM): 101%
- residual activity ([9]; compound 0.1 µM): 105%
- residual activity ([9]; compound 1.0 µM): 86%
- residual activity ([9]; compound 10.0 µM): 71%
- residual activity ([10]; compound 0.1 µM): 99%
- residual activity ([10]; compound 1.0 µM): 77%
- residual activity ([10]; compound 10.0 µM): 27%
- residual activity ([11]; compound 0.1 µM): 94%
- residual activity ([11]; compound 1.0 µM): 78%
- residual activity ([11]; compound 10.0 µM): 23%
- residual activity ([12]; compound 0.1 µM): 94%
- residual activity ([12]; compound 1.0 µM): 97%
- residual activity ([12]; compound 10.0 µM): 64%
- residual activity ([13]; compound 0.1 µM): 98%
- residual activity ([13]; compound 1.0 µM): 58%
- residual activity ([13]; compound 10.0 µM): 26%
- residual activity ([14]; compound 0.1 µM): 109%
- residual activity ([14]; compound 1.0 µM): 79%
- residual activity [15]: 93%
- residual activity ([16]; compound 0.1 µM): 87%
- residual activity ([16]; compound 1.0 µM): 38%
- residual activity ([16]; compound 10.0 µM): 7%
- residual activity ([17]; compound 0.1 µM): 100%
- residual activity ([17]; compound 1.0 µM): 103%
- residual activity ([17]; compound 10.0 µM): 61%
- residual activity ([18]; compound 0.1 µM): 118%
- residual activity ([18]; compound 1.0 µM): 87%
- residual activity ([18]; compound 10.0 µM): 62%
- residual activity [19]: 101%
- residual activity [20]: 110%
- residual activity ([21]; compound 0.1 µM): 100%
- residual activity ([21]; compound 1.0 µM): 27%
- residual activity ([21]; compound 10.0 µM): 8%
- residual activity ([22]; compound 0.1 µM): 68%
- residual activity ([22]; compound 1.0 µM): 19%
- residual activity ([22]; compound 10.0 µM): 2%
- residual activity ([23]; compound 0.1 µM): 28%
- residual activity ([23]; compound 1.0 µM): 3%
- residual activity ([23]; compound 10.0 µM): 3%
- residual activity ([24]; compound 0.1 µM): 68%
- residual activity ([24]; compound 1.0 µM): 14%
- residual activity ([24]; compound 10.0 µM): 4%
- residual activity ([25]; compound 0.1 µM): 87%
- residual activity ([25]; compound 1.0 µM): 102%
- residual activity ([25]; compound 10.0 µM): 87%
- residual activity [26]: 29%
- residual activity ([27]; compound 0.1 µM): 34%
- residual activity ([27]; compound 1.0 µM): 3%
- residual activity ([27]; compound 10.0 µM): 0%
- residual activity ([28]; compound 0.1 µM): 49%
- residual activity ([28]; compound 1.0 µM): 2%
- residual activity ([28]; compound 10.0 µM): 1%
- residual activity ([29]; compound 0.1 µM): 91%
- residual activity ([29]; compound 1.0 µM): 104%
- residual activity ([29]; compound 10.0 µM): 97%
- residual activity ([30]; compound 0.1 µM): 96%
- residual activity ([30]; compound 1.0 µM): 105%
- residual activity ([30]; compound 10.0 µM): 87%
- residual activity ([31]; compound 0.1 µM): 84%
- residual activity ([31]; compound 1.0 µM): 59%
- residual activity ([31]; compound 10.0 µM): 33%
- residual activity ([32]; compound 0.1 µM): 102%
- residual activity ([32]; compound 1.0 µM): 93%
- residual activity ([32]; compound 10.0 µM): 38%
- residual activity ([33]; compound 0.1 µM): 93%
- residual activity ([33]; compound 1.0 µM): 102%
- residual activity ([33]; compound 10.0 µM): 44%
- residual activity ([34]; compound 0.1 µM): 86%
- residual activity ([34]; compound 1.0 µM): 89%
- residual activity ([35]; compound 0.1 µM): 89%
- residual activity ([35]; compound 1.0 µM): 79%
- residual activity ([35]; compound 10.0 µM): 46%
